pIC50, pKi: −log10 of the molar value.

The first experiment has as its target T1, N-formyl peptide receptor 2 (Homo sapiens, UniProt P25090).
T1 sequence (P25090 whole entry): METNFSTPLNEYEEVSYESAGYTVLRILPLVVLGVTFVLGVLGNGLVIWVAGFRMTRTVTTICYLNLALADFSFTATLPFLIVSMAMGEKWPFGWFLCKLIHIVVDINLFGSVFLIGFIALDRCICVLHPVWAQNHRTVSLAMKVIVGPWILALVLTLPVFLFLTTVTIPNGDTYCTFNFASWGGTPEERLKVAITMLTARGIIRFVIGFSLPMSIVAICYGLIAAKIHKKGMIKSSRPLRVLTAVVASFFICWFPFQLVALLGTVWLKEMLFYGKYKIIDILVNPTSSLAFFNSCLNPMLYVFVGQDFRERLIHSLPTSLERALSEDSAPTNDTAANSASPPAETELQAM
Kind of experiment: concentration-dependent FPRL1 ligand displacement – cell-based, FPR counter-screen, fluorescent ligand, dose response (AID 520).
Conditions: not given
(Counterscreens check selectivity or assay interference.)
Take `CCc1cc2c(=O)c(-c3nc4ccccc4n3C)c(COCC(=O)O)oc2cc1OC(=O)C(C)(C)C` [2-[[7-(2,2-dimethyl-1-oxopropoxy)-6-ethyl-3-(1-methyl-2-benzimidazolyl)-4-oxo-1-benzopyran-2-yl]methoxy]acetic acid]: the pIC50 (in general, −log10 of the IC50, conventionally taken in molar units) was under 4.18.
The compound `COc1ccc(-c2nnc(Nc3nc4c(OC)cccc4s3)o2)c(OC)c1` [5-(2,4-dimethoxyphenyl)-N-(4-methoxy-1,3-benzothiazol-2-yl)-1,3,4-oxadiazol-2-amine] had a pIC50 of under 4.18.
For `CCCOc1ccc(C2C(C(=O)c3ccco3)C(=O)C(=O)N2CCCn2ccnc2)cc1` (stereo not drawn) [3-(furan-2-carbonyl)-4-hydroxy-1-(3-imidazol-1-ylpropyl)-2-(4-propoxyphenyl)-2H-pyrrol-5-one], the pIC50 was under 4.18 and the negative-log Ki (pKi) (usually the negative decadic logarithm of the Ki, by convention in mol/L) was under 4.39.
In the same order, the values of `COc1ccc(C2C(C(=O)c3ccccc3)C(=O)C(=O)N2CC(C)O)c(OC)c1` (stereo not drawn) [(4Z)-5-(2,4-dimethoxyphenyl)-4-[hydroxy(phenyl)methylene]-1-(2-hydroxypropyl)pyrrolidine-2,3-quinone] are under 4.18 and under 4.39.
In the same order, the values of `CCOc1ccc(C(=O)C2C(=O)C(=O)N(CC3CCCO3)C2c2ccc(C)o2)cc1` (stereo not drawn) [(4Z)-4-[(4-ethoxyphenyl)-hydroxymethylidene]-5-(5-methyl-2-furanyl)-1-(2-oxolanylmethyl)pyrrolidine-2,3-dione] are under 4.18 and under 4.39.
For `O=C1C(=O)N(CCN2CCOCC2)C(c2ccccc2)C1C(=O)c1cccs1` (stereo not drawn) [1-(2-morpholin-4-ylethyl)-4-oxidanyl-2-phenyl-3-thiophen-2-ylcarbonyl-2H-pyrrol-5-one], the pIC50 is under 4.18 and the pKi is under 4.39.
As to `COc1ccc(-c2nc(N3CCCC3)[nH]c(=O)c2C#N)cc1` [6-(4-methoxyphenyl)-4-oxidanylidene-2-pyrrolidin-1-yl-1H-pyrimidine-5-carbonitrile], the pIC50 was under 4.18.
On to `Cc1nc2c(C#N)c[nH]n2c(=O)c1Cc1ccccc1` [5-methyl-7-oxo-6-(phenylmethyl)-1H-pyrazolo[1,5-a]pyrimidine-3-carbonitrile], for which the pIC50 is under 4.18.
The compound `CC1Cc2cc(C(=O)C3C(=O)C(=O)N(CCN4CCOCC4)C3c3ccccc3F)ccc2O1` (stereo not drawn) [(4E)-5-(2-fluorophenyl)-4-[(2-methyl-2,3-dihydro-1-benzofuran-5-yl)-oxidanyl-methylidene]-1-(2-morpholin-4-ylethyl)pyrrolidine-2,3-dione] had a pIC50 of under 4.18 and a pKi of under 4.39.
`Cc1ccc(Nc2nc(C3CC3)cs2)cc1` [(4-cyclopropylthiazol-2-yl)-(p-tolyl)amine] had a pIC50 of under 4.18.
Consider `COC(=O)COc1ccc2c(=O)c(Oc3ccccc3)c(C)oc2c1` [2-(4-keto-2-methyl-3-phenoxy-chromen-7-yl)oxyacetic acid methyl ester], for which the pIC50 is under 4.18.
Same read-out and setting: in the case of `CCOc1ccccc1Oc1c(C)oc2cc(OC(=O)c3ccco3)ccc2c1=O` [2-furancarboxylic acid [3-(2-ethoxyphenoxy)-2-methyl-4-oxo-1-benzopyran-7-yl] ester] it was under 4.18.
Compound `O=C1C(=O)N(Cc2ccccc2)C(c2cccnc2)C1C(=O)c1ccco1` (stereo not drawn) [1-Benzyl-4-(furan-2-carbonyl)-3-hydroxy-5-pyridin-3-yl-1,5-dihydro-pyrrol-2-one] gave a pIC50 of under 4.18 and a pKi of under 4.39.
With `O=C(NC1CCCC1)C1CC1c1ccccc1` (stereo not drawn) [MLS000061073], the pIC50 is under 4.18.
The same measure, in the same setting: to `CCOC(=O)c1sc(=S)n2c1[nH]c(=O)c1ccc(C(=O)OC)cc12` [MLS000094734] belongs under 4.18; to `CCN(C(=O)Cc1c(C(=O)O)[nH]c2ccccc12)c1cc(OC)ccc1OC`, under 4.18; to `CC(=O)SCC(=O)N=c1sc2cc(F)ccc2n1C` [MLS000091388], under 4.18.
For the compound `Cc1c(C(=O)NC2CCCc3ccccc32)oc2ccc(S(=O)(=O)N3CCOCC3)cc12` (stereo not drawn) [3-methyl-5-(4-morpholinylsulfonyl)-N-(1,2,3,4-tetrahydronaphthalen-1-yl)-2-benzofurancarboxamide], the pIC50 was under 4.18.
The compound `O=C(NC1CCCC1)c1sc(=S)n2c1[nH]c(=O)c1ccccc12` gave a pIC50 of under 4.18.
The compound `COC(=O)c1[nH]c(C)c(C(=O)C2C(=O)C(=O)N(CCN3CCOCC3)C2c2cccnc2)c1C` (stereo not drawn) [4-[(E)-hydroxy-[1-[2-(4-morpholinyl)ethyl]-4,5-dioxo-2-(3-pyridinyl)-3-pyrrolidinylidene]methyl]-3,5-dimethyl-1H-pyrrole-2-carboxylic acid methyl ester] gave a pIC50 of under 4.18 and a pKi of under 4.39.
`Cc1ccc(NC(=O)C2CCCN2S(=O)(=O)c2cccc3cccnc23)cc1F` (stereo not drawn) [MLS000119092] showed a pIC50 of under 4.18.
Regarding `Cc1ccc(C(=O)C2C(=O)C(=O)N(CC(C)O)C2c2ccc(N(C)C)cc2)cc1` (stereo not drawn) [(4E)-5-[4-(dimethylamino)phenyl]-1-(2-hydroxypropyl)-4-[hydroxy(p-tolyl)methylene]pyrrolidine-2,3-quinone], the pIC50 is under 4.18 and the pKi was under 4.39.
Regarding `CCOC(=O)c1ccc(NC(=O)Nc2ccc3c4c(cccc24)C(=O)N3CC)cc1` [4-[(1-ethyl-2-keto-benzo[cd]indol-6-yl)carbamoylamino]benzoic acid ethyl ester], the pIC50 is under 4.18.
For the compound `CCCNC(=O)CS(=O)(=O)Cc1nc(-c2cccc(OC)c2)oc1C` [2-[[2-(3-methoxyphenyl)-5-methyl-1,3-oxazol-4-yl]methylsulfonyl]-N-propyl-ethanamide], the pIC50 was under 4.18.
`Clc1ccc(C2CC(c3cccs3)n3ncnc3N2)cc1Cl` (stereo not drawn) [5-(3,4-dichlorophenyl)-7-(2-thienyl)-1,5,6,7-tetrahydro-[1,2,4]triazolo[1,5-a]pyrimidine] showed a pIC50 of under 4.18.
For the compound `COc1cc(-n2nc(C)c3c2OC(=N)C(C#N)C3c2ccccc2)c(Cl)c(Br)c1O` (stereo not drawn) [6-amino-1-(3-bromo-2-chloro-4-hydroxy-5-methoxyphenyl)-3-methyl-4-phenyl-1,4-dihydropyrano[2,3-c]pyrazole-5-carbonitrile], the pIC50 is under 4.18 and the pKi was under 4.39.
On to `CCCN=C(S)Nc1ccc(Nc2ccccc2)cc1` [1-(4-anilinophenyl)-3-propyl-thiourea], for which the pIC50 was under 4.18.
Compound `COc1ccc(NC(=O)C2C(=O)NC3(C)CC2c2ccccc2O3)cc1` (stereo not drawn) [N-(4-methoxyphenyl)-2-methyl-4-oxo-3,4,5,6-tetrahydro-2H-2,6-methano-1,3-benzoxazocine-5-carboxamide] had a pIC50 of under 4.18.
On the same count and under the same terms, to `Oc1cc(-c2ccccc2)nc(N2CCN(Cc3ccccc3)CC2)n1` [6-phenyl-2-[4-(phenylmethyl)-1-piperazinyl]-1H-pyrimidin-4-one] belongs under 4.18.
In turn, `O=C1C(=O)N(Cc2ccccc2)C(c2ccncc2)C1C(=O)c1ccco1` (stereo not drawn) [1-Benzyl-4-(furan-2-carbonyl)-3-hydroxy-5-pyridin-4-yl-1,5-dihydro-pyrrol-2-one] showed a pIC50 of under 4.18 and a pKi of under 4.39.
Compound `CCCc1cc(=O)n2[nH]c(C)c(-c3ccccc3)c2n1` had a pIC50 of under 4.18.
As for `O=C(O)C1CCCCC1C(=O)Nc1ccccc1Cl` (stereo not drawn) [2-[(2-chloroanilino)-oxomethyl]-1-cyclohexanecarboxylic acid], the negative-log IC50 (pIC50) was under 4.18.

Still in this experiment, the particulars now being: inactive by the depositor's call.
`CCOC(=O)N1CCN(c2cc(NCCC(=O)O)c3c4c(onc24)-c2ccccc2C3=O)CC1` [MLS000086406]: the pIC50 was 4.30.

(Values after BindingDB's records for doi:10.7270/Q2DF6PMF (Nmmlsc, 2007).)
